Test results as given in patent US6812335B1, “Human polypeptide receptors for lysophospholipids and sphingolipids and nucleic acids encoding the same” (The Regents of the University of California, priority 1999, dated 2004).
Values joined by “and” are separate entries in the source; they are usually repeats but may differ in a detail not shown here. Equal entries are not always repeated. Where two headings read alike, the source gives them in different places.

Legend:
Edg2 = biological target: T1, Edg2 (Homo sapiens, UniProt Q92633); assay: SRE-luciferase reporter gene assay in Edg2-transfected Jurkat cells; format: cell-based; details: for EC50: 10-h incubation, read-out: EC50 of activation of SRE-driven reporter gene
T1 construct: the 1.1-kb cDNA coding region of human Edg2 was cleaved from Edg2/RSV (An et al., supra) and also subcloned into pCDEF3; expressed in transfected cells; host or cells: Jurkat leukemic T cells, transient transfection with Edg2/EF3 (pCDEF3 vector)

Edg4 [1] = biological target: T2, Edg4 (Homo sapiens, UniProt Q9HBW0); assay: SRE-luciferase reporter gene assay in Edg4-transfected Jurkat cells; format: cell-based
T2 construct: The Edg4 protein consists of 382 amino acids with an estimated molecular weight of 42,626 daltons; expressed in transfected cells; host or cells: Jurkat leukemic T cells, transient transfection with Edg4/EF3 (pCDEF3 vector)

Tsup-1 cells [2] = details: cited from earlier work
MCF-7 BCC = MCF-7 BCC secretion of IGF-II; format: cell-based, human
Edg4 [3] = biological target: T2, Edg4; assay: [3H]LPA receptor binding assay in Edg4-transfected Jurkat cells; details: Edg4 transfectants
Method: (§1) Jurkat T cells (2×10^7 in OPTI-MEM) were transfected with 2 μg of Edg4/EF3 or empty pCDEF3 vector for 4 hours at 37° C. using Lipofectin (Life Technologies, Inc). The transfected cells were maintained in RPMI 1640 medium containing 10% fetal bovine serum for 12 hours at 37° C. and washed three times with phosphate-buffered saline (PBS) before assessment of binding. Duplicate 0.2-ml aliquots of 2×10^6 cells were incubated with 200,000 cpm of ]^3H] LPA in 0.25% bovine serum albumnin-phosphate-buffered saline binding buffer for 45 minutes at 0° C. The final concentration of [^3H]LPA in the binding incubations was 10 nM. The binding cell suspensions were passed through GFIC filters that were washed with 12 ml of ice-cold PBS containing 0.05% Tween-20, air-dried, and added to scintillation fluid for quantification of radioactivity bound to the cells. Total and nonspecific binding were evaluated in the absence and the presence of 10 μM nonradioactive LPA, respectively. Specific binding was calculated from the difference in cpm between total binding and nonspecific binding.

Tsup-1 cells [4] = assay: Anti-Fas antibody-induced apoptosis of Tsup-1 cell transfectants (DNA endlabeling)
Method: Human CD4+8+3^low T lymphoblasts of the Tsup-1 line were cultured in RPMI-1640 medium (UCSF Cell Culture facility) containing 10% (v:v) fetal bovine serum (FBS), 100 U/ml of penicillin G, 100 ug/ml of streptomycin and 1 mM beta-mercaptoethanol (complete RPMI medium) at 37° C. in 5% CO2 in air. Complete RPMI medium was added to cultures every 2-3 days to maintain a density of 0.5-1×10^6 Tsup-1 cells/ml.
Briefly, after conditioning at low serum concentrations replicate suspensions of 5×10^5 Tsup-1 cells in 0.5 ml of RPMI-0.1% FBS were incubated in 24-well plastic plates (Falcon, Inc., Oxnard, Calif.) for 16 h at 37° C. in 5% CO2 in air. Some wells were precoated overnight at 4° C. with 30 ng of anti-Fas antibody (Pharmingen, Inc., San Diego, Calif.), 0.2 ug of anti-CD2 antibody (Pharmirigen, Inc., San Diego, Calif.) or a combination of 0.5 ug each of anti-CD3 antibody (Caltag Laboratories, Inc., So. San Francisco, Calif.) and anti-CD28 antibody (Bristol-Myers Squibb Pharmaceutical Research Institute, Seattle, Wash.), and in others 5 uM C6 ceramide was the stimulus for apoptosis.
Transfections of replicate suspensions of 4×10^6 cells in 2 ml of RPMI-2% FBS cultured as in Example 6 above were carried out by dropwise addition of a 250 ul preincubated mixture of 5 ug of antisense plasmid DNA, 0.2 ug of DNA of the REP 4 plasmid (InVitrogen, San Diego, Calif.) encoding hygromycin resistance and 15 ul of FuGENE 6 non-liposomal lipofection reagent (Boehringer-Mannheim Corp., Indianapolis, Ind.), incubation for 16-24 hours, and washing once and incubation in 4 ml of RPMI-10% FBS with 800 ug/ml of hygromycin for seven additional days. Then the surviving transfectants were washed and cultured in 4 ml of RPMI-0.1% FBS for 16 hours. Antisense plasmids containing full-length cDNA encoding Edg-2, -3, -4 and -5 receptors in the reverse orientation relative to promotors were constructed in the expression vectors pRc/CMV2 for Edg-2, pcDNA 3.1 for Edg-3 and Edg4 (InVitrogen, Inc., Carlsbad, Calif.) and pSV.SPORT1 for Edg-5 (GIBCO BRL, Gaithersburg, Md.) Control cells were sham-transfected with plasmids lacking these antisense inserts.
Briefly, cells from each well were pelleted at 200×g for 5 min at 4° C., resuspended in 0.5 ml of phosphate-buffered 4% formaldehyde, kept at room temperature for 10 minutes, re-pelleted, resuspended in 150 ul of 80% ethanol and immobilized and dried on poly-L-lysine precoated glass slides. Each slide was rehydrated in 20 mM Tris-130 mM NaCl (pH 7.6), and endogenous peroxidases were inactivated by treatment with 3% H2O2 in 90% methanol for 5 minutes at room temperature prior to endlabeling according to the procedures described in instructions for the Klenow-FragEL kit (Oncogene research Products-Calbiochem, Inc. La Jolla, Calif.). Percentage apoptosis was calculated from the number of Tsup-1 cells with stained nuclei of a total of 200 counted.

Edg4 [5] = assay: SRE-luciferase reporter gene assay in Edg4-transfected Jurkat cells; format: cell-based, human; details: Edg4 versus Edg2 transfectants
[6] = test system: control vector-transfected Jurkat cells; assay: [3H]LPA binding in control vector-transfected Jurkat cells
Method: as §1

[7] = test system: Jurkat cells transfected with empty pCDEF3 vector; format: cell-based; details: control Jurkat cells
MDA-MB-453 BCCs = assay: SRE-firefly luciferase reporter assay in MDA-MB-453 BCCs; format: cell-based, human; details: for mean maximal increase of luciferase luminometric activity: 10^−10 M to 10^−6 M lipid, 4 h
MCF-7 BCCs = assay: SRE-firefly luciferase reporter assay in MCF-7 BCCs; format: cell-based, human; details: for maximal increase of mean luciferase luminometric activity: 10^−10 M to 10^−6 M lipid, 4 h
[8] = 1 μM lipid, Edg2-transfected Jurkat cells
[9] = 1 μM lipid, Edg4-transfected Jurkat cells
[10] = Edg-2 & -4 antisense pretreatment, lipid 10^−8 M
[11] = Sham transfectants, lipid 10^−8 M, anti-Fas alone = 100%
[12] = Sham transfectants, lipid 10^−9 M, anti-Fas alone = 100%

T1 sequence (Q92633 whole entry): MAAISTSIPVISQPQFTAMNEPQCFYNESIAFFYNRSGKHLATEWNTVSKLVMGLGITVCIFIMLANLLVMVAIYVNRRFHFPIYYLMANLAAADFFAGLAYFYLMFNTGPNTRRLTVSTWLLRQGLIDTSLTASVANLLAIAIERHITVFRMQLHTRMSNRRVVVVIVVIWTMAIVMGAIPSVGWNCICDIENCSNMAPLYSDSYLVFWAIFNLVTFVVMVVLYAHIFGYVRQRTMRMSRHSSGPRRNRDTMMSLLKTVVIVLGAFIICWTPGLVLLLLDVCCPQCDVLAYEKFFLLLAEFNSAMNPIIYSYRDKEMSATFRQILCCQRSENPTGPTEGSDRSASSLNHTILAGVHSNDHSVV
T2 sequence (Q9HBW0 with tags, fused parts or gaps): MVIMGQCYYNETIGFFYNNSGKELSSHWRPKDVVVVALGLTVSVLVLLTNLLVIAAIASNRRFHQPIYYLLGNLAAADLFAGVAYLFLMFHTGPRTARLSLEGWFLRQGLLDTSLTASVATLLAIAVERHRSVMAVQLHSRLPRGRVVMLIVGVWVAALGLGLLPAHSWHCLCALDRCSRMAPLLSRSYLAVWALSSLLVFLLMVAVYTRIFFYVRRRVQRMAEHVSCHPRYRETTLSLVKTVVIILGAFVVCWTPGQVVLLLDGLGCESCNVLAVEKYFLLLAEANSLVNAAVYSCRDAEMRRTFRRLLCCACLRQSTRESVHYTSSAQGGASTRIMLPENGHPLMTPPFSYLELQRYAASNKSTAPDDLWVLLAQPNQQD

lysophosphatidyl-choline
increase in luciferase expression (Edg2; [8]): failed to generate significant increases
increase in luciferase expression (Edg4 [1]; [9]): failed to generate significant increases

Lysophosphatidic acid [LPA]
effect on apoptosis evoked by C6-ceramide (Tsup-1 cells [2]): not
effect on apoptosis induced by anti-Fas antibody and a combination of anti-CD3 and anti-CD28 antibodies (Tsup-1 cells [2]): prevent apoptosis
effect on secretion of IGF-II (MCF-7 BCC): Stimulation
number of LPA-binding sites (receptor density) (Edg4 [3]): 33,000±3200
percentage of control apoptosis (Tsup-1 cells [4]; [10]): 61%
percentage of control apoptosis (Tsup-1 cells [4]; Edg-2 & -4 antisense pretreatment, lipid 10^−9 M): 69%
percentage of control apoptosis (Tsup-1 cells [4]; [11]): 31%
percentage of control apoptosis (Tsup-1 cells [4]; [12]): 51%
EC50 (Edg2; Edg2-transfected Jurkat cells): ~10 nM
magnitude of evoked SRE-driven reporter activation of Edg4 relative to that of Edg2 (Edg4 [5]): approximately four times higher
number of LPA-binding sites (receptor density) [6]: 15,000±1300
change in SRE-luciferase response [7]: minimal changes
mean maximal increase of luciferase luminometric activity (MDA-MB-453 BCCs): 24 fold
maximal increase of mean luciferase luminometric activity (MCF-7 BCCs): up to 37 fold

phosphatidic acid [PA]
EC50 (Edg2; Edg2-transfected Jurkat cells): ≥ 500 nM
magnitude of evoked SRE-driven reporter activation of Edg4 relative to that of Edg2 (Edg4 [5]): approximately four times higher
EC50 (Edg4 [1]; Edg4-transfected Jurkat cells, 10-h incubation, read-out: EC50 of activation of SRE-driven reporter gene): ≥ 500 nM

COc1cccc(-c2cc(=O)c3ccccc3o2)c1N [MEK, 2′-amino-3′-methoxyflavone]
inhibition of LPA- and S1P-stimulated secretion of IGF-II (MCF-7 BCC): inhibited
percentage inhibition of the control SRE reporter response to LPA (MDA-MB-453 BCCs; 10^−7 M LPA, serum-free DMEM): 69%
percentage inhibition of the control SRE reporter response to S1P (MDA-MB-453 BCCs; 10^−7 M S1P, serum-free DMEM): 61%
percentage inhibition of the control SRE reporter response to LPA (MCF-7 BCCs; 10^−7 M LPA, serum-free DMEM): 41%
percentage inhibition of the control SRE reporter response to S1P (MCF-7 BCCs; 10^−7 M S1P, serum-free DMEM): 37%

CCCCCCCCCCCCC/C=C/[C@@H](O)[C@@H](N)COP(=O)(O)O [S1P, sphingosine 1-phosphate]
effect on apoptosis evoked by C6-ceramide (Tsup-1 cells [2]): suppressed significantly
effect on apoptosis induced by anti-Fas antibody and a combination of anti-CD3 and anti-CD28 antibodies (Tsup-1 cells [2]): prevent apoptosis
effect on secretion of IGF-II (MCF-7 BCC): Stimulation
percentage of control apoptosis (Tsup-1 cells [4]; [10]): 22%
percentage of control apoptosis (Tsup-1 cells [4]; Edg-3 & -5 antisense pretreatment, lipid 10^−8 M): 39% and 33%
percentage of control apoptosis (Tsup-1 cells [4]; Edg-3 & -5 antisense pretreatment, lipid 10^−9 M): 53%
percentage of control apoptosis (Tsup-1 cells [4]; [11]): 18%
percentage of control apoptosis (Tsup-1 cells [4]; [12]): 30%
increase in luciferase expression (Edg2): failed to generate significant increases
increase in luciferase expression (Edg4 [1]): failed to generate significant increases
mean maximal increase of luciferase luminometric activity (MDA-MB-453 BCCs): 26 fold
maximal increase of mean luciferase luminometric activity (MCF-7 BCCs): ≤ 85 fold

lysophosphatidyl-serine
increase in luciferase expression (Edg2; [8]): failed to generate significant increases
increase in luciferase expression (Edg4 [1]; [9]): failed to generate significant increases

lysophosphatidyl-ethanolamine
increase in luciferase expression (Edg2; [8]): failed to generate significant increases
increase in luciferase expression (Edg4 [1]; [9]): failed to generate significant increases
